According to patent publication US20240148895A1, “ANTIBODY-DRUG CONJUGATE” (Eisai R&D Management Co., Ltd., priority 2022, published 2024):

Experiments:
BRD4(BD1+BD2) protein = target: T1, BRD4(BD1+BD2) protein (Homo sapiens, UniProt O60885); test: BRD4 binding inhibition assay (TR-FRET); conditions: BRD4(BD1+BD2) TR-FRET Assay Kit, reaction 2 hours at room temperature; read-out: IC50 (concentration necessary for 50% inhibition of BRD4 binding activity)
T1 construct: 5 μL of BRD4(BD1+BD2) protein solution prepared to 3.6 ng/μL; purchased BPS Bioscience Inc. 32612
Method: This assay measures binding inhibition activity of the test substance on the bromodomain of BRD4 protein.
BRD4 binding inhibition activity assay was carried out using a BRD4(BD1+BD2)TR-FRET Assay Kit (BPS Bioscience Inc. Catalog #32612), according to the attached instructions. In a flat-bottom 384-well white plate (Greiner 781080) there was added 8 μL of Tb-labeled donor/dye-labeled acceptor solution diluted 160-fold with 1×BRD TR-FRET Assay Buffer1, with 5 μL of BET Bromodomain Ligand diluted 40-fold with 1×BRD TR-FRET Assay Buffer1 in the test substance measuring wells and the Positive Control wells, and 5 μL of Non-acetylated Ligand1 diluted 40-fold with 1×BRD TR-FRET Assay Buffer1 in the Negative Control wells. After adding 2 μL of test substance diluted with 1×BRD TR-FRET Assay Buffer1 to the test substance measuring wells, and 2 μL of Dimethyl Sulfoxide solution diluted 100-fold with 1×BRD TR-FRET Assay Buffer1 to the Positive Control wells and Negative Control wells, 5 μL of BRD4(BD1+BD2) protein solution prepared to 3.6 ng/μL with 1×BRD TR-FRET Assay Buffer1 was added and reaction was conducted for 2 hours at room temperature. The fluorescence intensity was measured at 620 nm and 665 nm with irradiation of 340 nm excitation light into each well, using an Envision™ (Perkin-Elmer). The ratio of fluorescence intensity at […] with respect to fluorescence intensity at 620 nm for each well was recorded as the TR-FRET ratio, and the TR-FRET ratio in the presence of the test substance was calculated with the Positive Control well value as 100%, subtracting the Negative Control well value. The concentration of test substance necessary for 50% inhibition of BRD4 binding activity (IC50) was calculated from the TR-FRET ratio, and shown in Table 1.

[1] = tested on: AsPC-1/Cas9 cell line (human pancreatic cancer cell line AsPC-1); test: AsPC-1/Cas9 growth inhibition assay; assay type: cell-based; conditions: 5 days culture, CellTiter Glo 2.0, read-out: IC50 (Absolute IC50, 50% inhibition of cell growth)
Method: Human pancreatic cancer cell line AsPC-1 (ATCC Number CRL1682) was infected with Edit-R Lentiviral hCMV-Blast-Cas9 Nuclease Particle (Dharmacon, VCAS10124) in the presence of 8 μg/ml of Hexadimethrine bromide (Sigma, H9268), and after 24 hours it was exposed to 10 μg/ml of Blastcidin S (Thermo, A11139) to remove the uninfected cells, thereby establishing an AsPC-1/Cas9 cell line. The cells were maintenance cultured in a 5% CO2 incubator (37° C.) using RPMI-1640 (FujiFilm-Wako Pure Chemical Industries) containing 10% fetal bovine serum (FBS: SIGMA 173012) and penicillin/streptomycin (FujiFilm-Wako Pure Chemical Industries) (hereunder referred to simply as “culture medium”). After adding 25 μL of AsPC-1/Cas9 cell suspension prepared to 3.2×10^4 cells/mL using culture medium into each well of a 384-well plate (Greiner 781091), the cells were cultured overnight in a 5% CO2 incubator (37° C.). On the following day, 25 μL of the test substance diluted with culture medium was added to each well, and culturing was continued for 5 days in a 5% CO2 incubator (37° C.). Next, 25 μL of CellTiter Glo™ 2.0 (Promega) was added to each well, and the plate contents were mixed for 5 minutes using a plate mixer. The plate was stationed for 10 minutes at room temperature while shielded from light, and then the luminous intensity was measured with an ENVISION™ (Perkin-Elmer). The luminescence value of the wells with addition of test substance was determined as a relative value, with 100% as the luminescence value of the wells with cells but without addition of the test substance and 0% as the luminescence value of the wells without cells. A plot of test substance concentration against luminescence value % approximated a 4-parameter logistic curve, and the test substance concentration necessary for 50% inhibition of cell growth (Absolute IC50) was calculated, and is shown in Table 10. In Table 10, the antibodies listed as “CEACAM6_#84.7” are the anti-CEACAM6 antibody of Example 301-1, the antibodies listed as “003” are the anti-folate receptor α antibody of Example 301-2, and the antibodies listed as “345A12” are the anti-mesothelin antibody of Example 301-3.
According the same method as in the AsPC-1/Cas9 growth inhibition assay described in Example 313 above, the test substance concentration necessary for 50% inhibition of cell growth (Absolute IC50) in the ADC described in Example 318 was calculated and is shown in Table 12.

[2] = tested on: Human pancreatic cancer cell line HPAF-II; test: HPAF-II growth inhibition assay (Example 317); assay type: cell-based; conditions: 120 h, HPAF-II cells, 5 days culture, CellTiter Glo 2.0 (Example 317, Table 11), read-out: Absolute IC50
Method: Cells of the human pancreatic cancer cell line HPAF-II (ATCC Number CRL-1997) were maintenance cultured in a 5% CO2 incubator (37° C.) using RPMI 1640 (FujiFilm-Wako Pure Chemical Industries) containing 10% fetal bovine serum (FBS: SIGMA 173012) and penicillin/streptomycin (FujiFilm-Wako Pure Chemical Industries) (hereunder referred to simply as “culture medium”). After adding 25 μL of HPAF-II cell suspension prepared to 3.2×10^4 cells/mL using culture medium into each well of a 384-well plate (Greiner 781091), the cells were cultured overnight in a 5% CO2 incubator (37° C.). On the following day, 25 μL of the test substance diluted with culture medium was added to each well, and culturing was continued for 5 days in a 5% CO2 incubator (37° C.). Next, 25 μL of CellTiter Glo™ 2.0 (Promega) was added to each well, and the plate contents were mixed for 5 minutes using a plate mixer. The plate was stationed for 10 minutes at room temperature while shielded from light, and then the luminous intensity was measured with an ENVISION′ (Perkin-Elmer). The luminescence value of the wells with addition of test substance was determined as a relative value, with 100% as the luminescence value of the wells with cells but without addition of the test substance and 0% as the luminescence value of the wells without cells. […]

[3] = target: HiBiT tagged BRD4-BD1 protein in HEK293/LgBiT/hPGK/HiBiT-BRD4-BD1 cells (Homo sapiens, UniProt O60885); test: BET BD1 domain degradation assay; assay type: cell-based; design: HiBit-linker-BRD4 BD1(1-209); host or cells: HEK293 (ATCC CRL-1573) stably transduced with LgBiT and HiBiT-BRD4-BD1; conditions: concentration for 50% reduction in HiBiT-BRD4-BD1 protein level, 3 hours, read-out: Absolute DC50—3 h (nM) HEK293_HiBiT-BRD4-BD1
Text: HEK293/LgBiT/hPGK/HiBiT-BRD4-BD1 cells were established by introducing LgBiT and HiBiT-BRD4-BD1 into the human fetus renal cell line HEK293 (ATCC Number CRL-1573). LgBiT was introduced using lentivirus vector LV[Exp]-Bsd-EFS>{LgBiT}, and HiBiT-BRD4-BD1 was introduced with lentivirus vector LV[Exp]-Puro-hPGK>{HiBit-linker-BRD4 BD1(1-209)}. The vector plasmids LV[Exp]-Bsd-EFS>{LgBiT} and LV[Exp]-Puro-hPGK>{HiBit-linker-BRD4_BD1(1-209)} were constructed by VectorBuilder Co. The lentivirus was produced using a Mission Lentivirus Packaging Mix (Sigma) according to the manufacturer's protocol. Viral infection and drug selection of infected cells were carried out by the following published method (Akagi T. et. al, PNAS 2003; 100:13567-72). The cells were maintenance cultured in a 5% CO2 incubator (37° C.), using culture medium. A 45 μL portion of cell suspension of HEK293/LgBiT/hPGK/HiBiT-BRD4-BD1 cells prepared to 6.7×10^4 cells/mL using culture medium was added to each well of a collagen I-coated 384-well plate (Falcon 356667), and the cells were cultured overnight in a 5% CO2 incubator (37° C.). On the following day, 5 μL of test substance diluted with RPMI-1640 (FujiFilm-Wako Pure Chemical Industries) containing 10% fetal bovine serum (FBS: SIGMA 173012) and penicillin/streptomycin (FujiFilm-Wako Pure Chemical Industries) was added to each well, and culturing was continued for 3 hours in a 5% CO2 incubator (37° C.). The luminous intensity was measured using a Nono-Glo HiBiT Lytic Detection System (Promega), and the intracellular HiBiT tagged BRD4-BD1 protein level was calculated. After culturing, 25 μL of measuring reagent was added to each well and the plate contents were mixed for 5 minutes using a plate mixer. The plate was stationed for 10 minutes at room temperature while shielded from light, and then the luminous intensity was measured with an ENVISION′ (Perkin-Elmer). The luminescence value of the wells with addition of test substance was determined as a relative value, with 100% as the luminescence value of the wells with cells but without addition of the test substance, and 0% as the luminescence value of the wells without cells. A plot of test substance concentration against luminescence value % approximated a 4-parameter logistic curve, and the test substance concentration necessary for 50% reduction in protein level (Absolute DC50) was calculated and is shown in Table 4.

AsPC-1/Cas9 cell line = test: AsPC-1/Cas9 growth inhibition assay; assay type: cell-based, human; conditions: Homo sapiens, ASPC1, 120 h, AsPC-1/Cas9 cells, 5 days culture, CellTiter Glo 2.0; read-out: Absolute IC50—Day 5 (nM) AsPC-1 Cas9
Method: The human pancreatic cancer cell line AsPC-1 (ATCC Number CRL1682) was infected with Edit-R Lentiviral hCMV-Blast-Cas9 Nuclease Particle (Dharmacon, VCAS10124) in the presence of 8 μg/ml of Hexadimethrine bromide (Sigma, H9268), and after 24 hours it was exposed to 10 μg/ml of Blastcidin S (Thermo, A11139) to remove the uninfected cells, thereby establishing an AsPC-1/Cas9 cell line. The cells were maintenance cultured in a 5% CO2 incubator (37° C.) using RPMI-1640 (FujiFilm-Wako Pure Chemical Industries) containing 10% fetal bovine serum (FBS: SIGMA 173012) and penicillin/streptomycin (FujiFilm-Wako Pure Chemical Industries) (hereunder referred to simply as “culture medium”). After adding 45 μL of AsPC-1/Cas9 cell suspension prepared to 2.0×10^4 cells/mL using culture medium into each well of a 384-well plate (Greiner 781091), the cells were cultured overnight in a 5% CO2 incubator (37° C.). On the following day, 5 μL of the test substance diluted with culture medium was added to each well, and culturing was continued for 5 days in a 5% CO2 incubator (37° C.). Next, 25 μL of CellTiter Glo™ 2.0 (Promega) was added to each well, and the plate contents were mixed for 5 minutes using a plate mixer. The plate was stationed for 10 minutes at room temperature while shielded from light, and then the luminous intensity was measured with an ENVISION™ (Perkin-Elmer). The luminescence value of the wells with addition of test substance was determined as a relative value, with 100% as the luminescence value of the wells with cells but without addition of the test substance, and 0% as the luminescence value of the wells without cells. A plot of test substance concentration against luminescence value % approximated a 4-parameter logistic curve, and the test substance concentration necessary for 50% inhibition of cell growth (Absolute IC50) was calculated, and is shown in Table 4.

SMILES | IC50 (BRD4(BD1+BD2) protein) [nM] | IC50 [1] [nM] | IC50 [2] [nM] | DC50 [3] [nM] | IC50 (AsPC-1/Cas9 cell line) [nM]
Cn1cc(-c2ccc3nc(N4CCC(OC5CCNCC5)CC4)nc(C(CO)(c4ccccc4)c4ccccc4)c3c2)c2ccoc2c1=O [Example 35, 4-(4-(2-Hydroxy-1,1-diphenylethyl)-2-(4-(piperidin-4-yloxy)piperidin-1-yl)quinazolin-6-yl)-6-methylfuro[2,3-c]pyridine-7(6H)-one] | 87 | 0.038 | – | – | –
Cc1cc(-c2ccc3nc(N)nc([C@@](CO)(OC4CC4)c4ccccc4)c3c2)cn(C)c1=O [Example 36, (S)-5-(2-Amino-4-(1-cyclopropoxy-2-hydroxy-1-phenylethyl)quinazolin-6-yl)-1,3-dimethylpyridin-2(1H)-one] | 25 | 0.035 | – | – | –
COc1ccc(C#CCNC2(C)CCN(C3CCN(c4nc([C@@](CO)(OC5CC5)c5ccccc5)c5cc(-c6cn(C)c(=O)c7[nH]ccc67)ccc5n4)CC3)CC2)cc1N1CCC(=O)N(CNC(=O)[C@H](CC(N)=O)NC(C)=O)C1=O [Example 135, (S)-2-Acetamide-N1-((3-(5-(3-((1′-(4-((S)-1-cyclopropoxy-2-hydroxy-1-phenylethyl)-6-(6-methyl-7-oxo-6,7-dihydro-1H-pyrrolo[2,3-c]pyridin-4-yl)quinazolin-2-yl)-4-methyl-[1,4′-bipiperidin]-4-yl)amino)prop-1-yn-1-yl)-2-methoxyphenyl)-2,6-dioxotetrahydropyrimidine-1(2H)-yl)methyl)succinamide] | – | – | 2.9 | > 100 | 2.4
